Laboratory results: patent US11590116B2 (THERAVANCE BIOPHARMA R&D IP, LLC, priority 2019, dated 2023)

Key:
[1] = biological target: T1, recombinant human ALK5 (TGF-βR1) protein (Homo sapiens, UniProt P36897); assay: Biochemical ALK5 (TGF-βR1) assay to measure pKi (LANCE Ultra ULight kinase assay); conditions: apparent pKi from pIC50 by Cheng-Prusoff, read-out: ALK5 pKi (converted)
T1 construct: purchased Life Technologies PR9075A
T1 sequence (P36897 34-503): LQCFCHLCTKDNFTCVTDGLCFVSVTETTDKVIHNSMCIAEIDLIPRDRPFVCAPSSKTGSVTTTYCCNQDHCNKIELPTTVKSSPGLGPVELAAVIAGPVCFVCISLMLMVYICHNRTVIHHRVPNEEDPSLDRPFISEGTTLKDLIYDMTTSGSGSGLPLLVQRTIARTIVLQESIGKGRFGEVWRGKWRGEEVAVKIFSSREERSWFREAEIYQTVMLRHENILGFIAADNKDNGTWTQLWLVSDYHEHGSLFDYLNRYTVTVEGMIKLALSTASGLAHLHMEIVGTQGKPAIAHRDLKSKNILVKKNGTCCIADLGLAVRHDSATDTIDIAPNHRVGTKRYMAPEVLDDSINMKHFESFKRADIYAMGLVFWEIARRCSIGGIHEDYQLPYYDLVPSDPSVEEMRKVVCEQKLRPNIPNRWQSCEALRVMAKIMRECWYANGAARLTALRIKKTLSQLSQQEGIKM
Summary of the method: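 Compounds (10 μM to 25 pM) preincubated 60 minutes at room temperature with enzyme, then reaction run 60 minutes at 37° C with ATP added as 125 μM (5× final). Stopped with EDTA plus Eu-anti-phospho-Topoisomerase 2-alpha (Thr1342) antibody, TR-FRET read at 665 nm; pIC50 converted to pKi via Cheng-Prusoff.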

[2] = test system: TGF-β-stimulated SMAD3 phosphorylation in BEAS-2B cells; assay: Cellular ALK5 potency assay, inhibition of TGF-β stimulated pSMAD3 formation in BEAS-2B cells; assay type: cell-based; conditions: Homo sapiens; inhibition of TGF-β stimulated pSMAD3 formation, BEAS-2B cells; read-out: BEAS2B pIC50 (converted)
Summary of the method: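 BEAS-2B human lung epithelial cells, seeded overnight, were pre-treated with compound in HBSS/25 mM HEPES/1% BSA for 1 h at 37 °C, then stimulated with TGF-β (final 10 ng/mL) for 30 min. Lysates were assayed for pSMAD3 by AlphaLISA; pIC50 came from dose-dependent signal change versus TGF-β-stimulated untreated cells.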

Ki [1]	SMILES	IC50 [2]
< 0.0316 nM	Cc1cccc(-c2n[nH]cc2-c2ccc3ncc(-c4cn(Cc5c[nH]cn5)nn4)cc3n2)n1 [Compound 101, 7-[1-(1H-imidazol-4-ylmethyl)triazol-4-yl]-2-[3-(6-methyl-2-pyridyl)-1H-pyrazol-4-yl]-1,5-naphthyridine]	200 to 1260 nM
0.0398 to 0.316 nM	Cc1cccc(-c2[nH]cnc2-c2ccc3ncc(-c4csc(C(=O)O[C@H]5CC[C@](C)(N)CC5)c4)cc3c2)n1 [Compound 1200, (4-amino-4-methyl-cyclohexyl) 4-[6-[5-(6-methyl-2-pyridyl)-1H-imidazol-4-yl]-3-quinolyl]thiophene-2-carboxylate]	25.1 to 158 nM
0.0398 to 0.316 nM	Cc1cccc(-c2n[nH]cc2-c2ccc3ncc(N4CCN[C@@H](C(=O)N(C)C)C4)cc3n2)n1 [Compound 204, (2R)-N,N-dimethyl-4-[6-[3-(6-methyl-2-pyridyl)-1H-pyrazol-4-yl]-1,5-naphthyridin-3-yl]piperazine-2-carboxamide]	25.1 to 158 nM
0.398 to 3.16 nM	Cc1cccc(-c2[nH]cnc2-c2ccc3ncc(C(=O)OC[C@H]4CCCCN4)cc3c2)n1 [Compound 884, (R)-piperidin-2-ylmethyl 6-(5-(6-methylpyridin-2-yl)-1H-imidazol-4-yl)quinoline-3-carboxylate]	25.1 to 158 nM
0.0398 to 0.316 nM	Cc1cccc(-c2[nH]cnc2-c2ccc3ncc(-c4ccc(C(=O)O)cc4)cc3c2)n1 [Compound 145, 4-[6-[5-(6-methyl-2-pyridyl)-1H-imidazol-4-yl]-3-quinolyl]benzoic acid]	200 to 1260 nM
0.0398 to 0.316 nM	Cc1cccc(-c2[nH]cnc2-c2ccc3ncc(C4=CCCNC4)cc3c2)n1 [Compound 259, 6-[5-(6-methyl-2-pyridyl)-1H-imidazol-4-yl]-3-(1,2,3,6-tetrahydropyridin-5-yl)quinoline]	< 20 nM
< 0.0316 nM	Cc1cccc(-c2[nH]cnc2-c2ccc3ncc(-c4ccc(C(=O)OCC5CNC5)cn4)cc3c2)n1 [Compound 1103, azetidin-3-ylmethyl 6-[6-[5-(6-methyl-2-pyridyl)-1H-imidazol-4-yl]-3-quinolyl]pyridine-3-carboxylate]	25.1 to 158 nM
0.0398 to 0.316 nM	Cc1cccc(-c2[nH]cnc2-c2ccc3ncc(N4CC(N(C)C)C4)cc3c2)n1 [Compound 648, N,N-dimethyl-1-[6-[5-(6-methyl-2-pyridyl)-1H-imidazol-4-yl]-3-quinolyl]azetidin-3-amine]	25.1 to 158 nM
0.0398 to 0.316 nM	Cc1nc(-c2[nH]cnc2-c2ccc3ncc(-c4cnn(CCN)c4)cc3n2)ccc1F [Compound 225, 2-[4-[6-[5-(5-fluoro-6-methyl-2-pyridyl)-1H-imidazol-4-yl]-1,5-naphthyridin-3-yl]pyrazol-1-yl]ethanamine]	25.1 to 158 nM
0.0398 to 0.316 nM	Cc1cccc(-c2[nH]ncc2-c2ccc3ncc(C(=O)OCCC4CCNCC4)cc3c2)n1 [Compound 1255, 2-(4-piperidyl)ethyl 6-[5-(6-methyl-2-pyridyl)-1H-pyrazol-4-yl]quinoline-3-carboxylate]	25.1 to 158 nM
< 0.0316 nM	Cc1cccc(-c2[nH]cnc2-c2ccc3ncc(C4=CC[C@H](N)CC4)cc3c2)n1 [Compound 81, (1R)-4-[6-[5-(6-methyl-2-pyridyl)-1H-imidazol-4-yl]-3-quinolyl]cyclohex-3-en-1-amine]	< 20 nM
0.0398 to 0.316 nM	Cc1cccc(-c2[nH]cnc2-c2ccc3ncc(NCCN4CCC5(CCNCC5)C4)cc3c2)n1 [Compound 703, N-[2-(2,8-diazaspiro[4.5]decan-2-yl)ethyl]-6-[5-(6-methyl-2-pyridyl)-1H-imidazol-4-yl]quinolin-3-amine]	25.1 to 158 nM
0.0398 to 0.316 nM	CCN1CCN(c2cnc3ccc(-c4c[nH]nc4-c4cccc(C)n4)nc3c2)CC1 [Compound 390, 7-(4-ethylpiperazin-1-yl)-2-[3-(6-methyl-2-pyridyl)-1H-pyrazol-4-yl]-1,5-naphthyridine]	25.1 to 158 nM
< 0.0316 nM	Cc1cccc(-c2n[nH]cc2-c2ccc3ncc(N4CCOCC4)cc3n2)n1 [Compound 78, 4-[6-[3-(6-methyl-2-pyridyl)-1H-pyrazol-4-yl]-1,5-naphthyridin-3-yl]morpholine]	< 20 nM
0.0398 to 0.316 nM	Cc1cccc(-c2[nH]cnc2-c2ccc3ncc(-c4ccnc(C(=O)O[C@@H]5CCNC5)c4)cc3c2)n1 [Compound 1050, [(3R)-pyrrolidin-3-yl] 4-[6-[5-(6-methyl-2-pyridyl)-1H-imidazol-4-yl]-3-quinolyl]pyridine-2-carboxylate]	200 to 1260 nM
0.0398 to 0.316 nM	Cc1cccc(-c2[nH]cnc2-c2ccc3ncc(N4CC5(CCNCC5)C4)cc3c2)n1 [Compound 179, 3-(2,7-diazaspiro[3.5]nonan-2-yl)-6-[5-(6-methyl-2-pyridyl)-1H-imidazol-4-yl]quinoline]	25.1 to 158 nM
0.0398 to 0.316 nM	Cc1cccc(-c2[nH]cnc2-c2ccc3ncc(-c4nc(C(=O)OCCN5CCNCC5)cs4)cc3c2)n1 [Compound 1145, 2-piperazin-1-ylethyl 2-[6-[5-(6-methyl-2-pyridyl)-1H-imidazol-4-yl]-3-quinolyl]thiazole-4-carboxylate]	25.1 to 158 nM
0.398 to 3.16 nM	Cc1cccc(-c2n[nH]cc2-c2ccc3ncc(C#N)cc3n2)n1 [Compound 236, 6-[3-(6-methyl-2-pyridyl)-1H-pyrazol-4-yl]-1,5-naphthyridine-3-carbonitrile]	25.1 to 158 nM
0.0398 to 0.316 nM	Cc1cccc(-c2[nH]cnc2-c2ccc3ncc(-c4cccc(C(=O)OC5CCNCC5)n4)cc3c2)n1 [Compound 1062, 4-piperidyl 6-[6-[5-(6-methyl-2-pyridyl)-1H-imidazol-4-yl]-3-quinolyl]pyridine-2-carboxylate]	25.1 to 158 nM
< 0.0316 nM	Cc1cccc(-c2nc3ccccn3c2-c2ccc3ncc(N4CCC(N(C)C)C4)cc3c2)n1 (centres unmarked) [Compound 272, N,N-dimethyl-1-[6-[2-(6-methyl-2-pyridyl)imidazo[1,2-a]pyridin-3-yl]-3-quinolyl]pyrrolidin-3-amine]	25.1 to 158 nM
0.0398 to 0.316 nM	Cc1cccc(-c2[nH]cnc2-c2ccc3ncc(C(=O)OCCCN4C[C@@H](C)N[C@@H](C)C4)cc3c2)n1 [Compound 898, 3-((3S,5R)-3,5-dimethylpiperazin-1-yl)propyl 6-(5-(6-methylpyridin-2-yl)-1H-imidazol-4-yl)quinoline-3-carboxylate]	25.1 to 158 nM
< 0.0316 nM	Cc1cccc(-c2n[nH]cc2-c2ccc3ncc(N4CCN5CCCC5C4)cc3n2)n1 (centres unmarked) [Compound 74, 7-(3,4,6,7,8,8a-hexahydro-1H-pyrrolo[1,2-a]pyrazin-2-yl)-2-[3-(6-methyl-2-pyridyl)-1H-pyrazol-4-yl]-1,5-naphthyridine]	25.1 to 158 nM
0.0398 to 0.316 nM	Cc1cccc(-c2[nH]cnc2-c2ccc3ncc(N4CC[C@@H](N)C4)cc3c2)n1 [Compound 13, (3R)-1-[6-[5-(6-methyl-2-pyridyl)-1H-imidazol-4-yl]-3-quinolyl]pyrrolidin-3-amine]	< 20 nM
0.0398 to 0.316 nM	Cc1cccc(-c2[nH]c(CNc3ccccc3F)nc2-c2ccc3ncc(N4CCC(N(C)C)C4)cc3c2)n1 (racemic) [Compound 652, rac-(3S)-1-[6-[2-[(2-fluoroanilino)methyl]-5-(6-methyl-2-pyridyl)-1H-imidazol-4-yl]-3-quinolyl]-N,N-dimethyl-pyrrolidin-3-amine]	200 to 1260 nM
0.0398 to 0.316 nM	Cc1cccc(-c2n[nH]cc2-c2ccc3nccc(C(=O)NCCN4CCOCC4)c3n2)n1 [Compound 802, 6-[3-(6-methyl-2-pyridyl)-1H-pyrazol-4-yl]-N-(2-morpholinoethyl)-1,5-naphthyridine-4-carboxamide]	200 to 1260 nM
0.0398 to 0.316 nM	Cc1cccc(-c2[nH]cnc2-c2ccc3ncc(C4=CCC(NC(=O)CSC5CCOC5=O)CC4)cc3c2)n1 (centres unmarked) [Compound 98, N-(4-(6-(5-(6-methylpyridin-2-yl)-1H-imidazol-4-yl)quinolin-3-yl)cyclohex-3-en-1-yl)-2-((2-oxotetrahydrofuran-3-yl)thio)acetamide]	25.1 to 158 nM
0.0398 to 0.316 nM	Cc1cccc(-c2n[nH]cc2-c2ccc3ncc(N4CCN(C)CC4)cc3n2)n1 [Compound 654, 7-(4-methylpiperazin-1-yl)-2-[3-(6-methyl-2-pyridyl)-1H-pyrazol-4-yl]-1,5-naphthyridine]	25.1 to 158 nM
0.398 to 3.16 nM	Cc1cccc(-c2n[nH]cc2-c2ccc3nccc(C(=O)NCCCC[C@H](NC(=O)[C@@H](C)N)C(=O)O)c3n2)n1 (racemic) [Compound 804, rac-(2S)-6-[[6-[3-(6-methyl-2-pyridyl)-1H-pyrazol-4-yl]-1,5-naphthyridine-4-carbonyl]amino]-2-[[rac-(2R)-2-aminopropanoyl]amino]hexanoic acid]	1580 to 10000 nM
